Patent US20110136666A1, “CHEMICAL COMPOUNDS” (SYNGENTA CROP PROTECTION, INC., priority 2008, published 2011)

The molecules below were run on Solanum nigrum (SOLNI) (assay: Post-emergence biological efficacy, glasshouse pot test). Conditions: 312 h, 250 g/ha, after 13 days, 100=total damage, 0=no damage, read-out: Percentage damage caused to weed species SOLNI.
Format: in vivo
Method: (§1) Seeds of Alopecurus myosuroides (ALOMY), Setaria faberi (SETFA), Echinochloa crus-galli (ECHCG), Solanum nigrum (SOLNI), Amaranthus retroflexus (AMARE) and Ipomea hederaceae (IPOHE) were sown in standard soil in pots. After cultivation for 8 days under controlled conditions in a glasshouse (at 24/16° C., day/night; 14 hours light; 65% humidity), the plants were sprayed with an aqueous spray solution derived from the formulation of the technical active ingredient in acetone/water (50:50) solution containing 0.5% Tween 20 (polyoxyethylene sorbitan monolaurate, CAS RN 9005-64-5) to give a final dose of 250 or 1000 g/ha of test compound.
(§2) The test plants were then grown on under controlled conditions in a glasshouse (at 24/16° C., day/night; 14 hours light; 65% humidity) and watered twice daily. After 13 days the test was evaluated (100=total damage to plant; 0=no damage to plant).
For COC(=O)c1nc(-c2ccc(C(C)=O)s2)nc(N)c1Cl [Compound 2-9, 4-Amino-5-chloro-6-methoxycarbonyl-2-(5-methylcarbonyl-thiophen-2-yl)-pyrimidine], the pest or weed control at 250 g/ha was 0%. With COC(=O)c1nc(-c2ccsc2)nc(N)c1Cl [Compound 2-16, 4-Amino-5-chloro-6-methoxycarbonyl-2-thiophen-3-ylpyrimidine] the pest or weed control at 250 g/ha was 0%.

These molecules were tested on Amaranthus retroflexus (AMARE) in the same assay as above. Conditions: 312 h, 250 g/ha, after 13 days, 100=total damage, 0=no damage, read-out: Percentage damage caused to weed species AMARE.
Format: in vivo
Method: as §1, §2
COC(=O)c1nc(-c2ccc(C(C)=O)s2)nc(N)c1Cl [Compound 2-9, 4-Amino-5-chloro-6-methoxycarbonyl-2-(5-methylcarbonyl-thiophen-2-yl)-pyrimidine] showed a pest or weed control at 250 g/ha of 0%. COC(=O)c1nc(-c2ccsc2)nc(N)c1Cl [Compound 2-16, 4-Amino-5-chloro-6-methoxycarbonyl-2-thiophen-3-ylpyrimidine] showed a pest or weed control at 250 g/ha of 0%.

These molecules were tested on Alopecurus myosuroides (ALOMY) in the same assay as above. Conditions: 312 h, 250 g/ha, after 13 days, 100=total damage, 0=no damage, read-out: Percentage damage caused to weed species ALOMY.
Format: in vivo
Method: as §1, §2
In the case of COC(=O)c1nc(-c2ccc(C(C)=O)s2)nc(N)c1Cl [Compound 2-9, 4-Amino-5-chloro-6-methoxycarbonyl-2-(5-methylcarbonyl-thiophen-2-yl)-pyrimidine], the pest or weed control at 250 g/ha is reported as 0%. COC(=O)c1nc(-c2ccsc2)nc(N)c1Cl [Compound 2-16, 4-Amino-5-chloro-6-methoxycarbonyl-2-thiophen-3-ylpyrimidine] was tested, and the pest or weed control at 250 g/ha was 20%.

Each molecule was assayed on Echinochloa crus-galli (ECHCG) in the same assay as above. Conditions: 312 h, 250 g/ha, after 13 days, 100=total damage, 0=no damage, read-out: Percentage damage caused to weed species ECHCG.
Format: in vivo
Method: as §1, §2
COC(=O)c1nc(-c2ccc(C(C)=O)s2)nc(N)c1Cl [Compound 2-9, 4-Amino-5-chloro-6-methoxycarbonyl-2-(5-methylcarbonyl-thiophen-2-yl)-pyrimidine] gave a pest or weed control at 250 g/ha of 0%. In the case of COC(=O)c1nc(-c2ccsc2)nc(N)c1Cl [Compound 2-16, 4-Amino-5-chloro-6-methoxycarbonyl-2-thiophen-3-ylpyrimidine], the pest or weed control at 250 g/ha is reported as 0%.

The molecules below were run on Setaria faberi (SETFA) in the same assay as above. Conditions: 312 h, 250 g/ha, after 13 days, 100=total damage, 0=no damage, read-out: Percentage damage caused to weed species SETFA.
Format: in vivo
Method: as §1, §2
In the case of COC(=O)c1nc(-c2ccc(C(C)=O)s2)nc(N)c1Cl [Compound 2-9, 4-Amino-5-chloro-6-methoxycarbonyl-2-(5-methylcarbonyl-thiophen-2-yl)-pyrimidine], the pest or weed control at 250 g/ha is reported as 0%. With COC(=O)c1nc(-c2ccsc2)nc(N)c1Cl [Compound 2-16, 4-Amino-5-chloro-6-methoxycarbonyl-2-thiophen-3-ylpyrimidine] the pest or weed control at 250 g/ha was 0%.

The molecules below were run on Ipomea hederaceae (IPOHE) in the same assay as above. Conditions: Ipomoea hederacea, 312 h, 250 g/ha, after 13 days, 100=total damage, 0=no damage, read-out: Percentage damage caused to weed species IPONE.
Format: in vivo
Method: as §1, §2
For COC(=O)c1nc(-c2ccc(C(C)=O)s2)nc(N)c1Cl [Compound 2-9, 4-Amino-5-chloro-6-methoxycarbonyl-2-(5-methylcarbonyl-thiophen-2-yl)-pyrimidine], the pest or weed control at 250 g/ha was 0%. COC(=O)c1nc(-c2ccsc2)nc(N)c1Cl [Compound 2-16, 4-Amino-5-chloro-6-methoxycarbonyl-2-thiophen-3-ylpyrimidine] showed a pest or weed control at 250 g/ha of 40%.

The molecules below were run on Solanum nigrum (SOLNI) (assay: Pre-emergence biological efficacy, glasshouse pot test). Conditions: 312 h, 250 g/ha, after 13 days, 100=total damage, 0=no damage, read-out: Percentage damage caused to weed species SOLNI.
Format: in vivo
Method: as §1, with “one day” for “8 days”
(§3) The test plants were then grown under controlled conditions in the glasshouse (at 24/16° C., day/night; 14 hours light; 65% humidity) and watered twice daily. After 13 days the test was evaluated (100=total damage to plant; 0=no damage to plant).
Work on COC(=O)c1nc(-c2ccc(C(C)=O)s2)nc(N)c1Cl [Compound 2-9, 4-Amino-5-chloro-6-methoxycarbonyl-2-(5-methylcarbonyl-thiophen-2-yl)-pyrimidine] yielded a pest or weed control at 250 g/ha of 0%. Work on COC(=O)c1nc(-c2ccsc2)nc(N)c1Cl [Compound 2-16, 4-Amino-5-chloro-6-methoxycarbonyl-2-thiophen-3-ylpyrimidine] yielded a pest or weed control at 250 g/ha of 30%.

These molecules were tested on Amaranthus retroflexus (AMARE) in the same assay as above. Conditions: 312 h, 250 g/ha, after 13 days, 100=total damage, 0=no damage, read-out: Percentage damage caused to weed species AMARE.
Format: in vivo
Method: as §1, with “one day” for “8 days”
as §3
COC(=O)c1nc(-c2ccc(C(C)=O)s2)nc(N)c1Cl [Compound 2-9, 4-Amino-5-chloro-6-methoxycarbonyl-2-(5-methylcarbonyl-thiophen-2-yl)-pyrimidine] showed a pest or weed control at 250 g/ha of 0%. In the case of COC(=O)c1nc(-c2ccsc2)nc(N)c1Cl [Compound 2-16, 4-Amino-5-chloro-6-methoxycarbonyl-2-thiophen-3-ylpyrimidine], the pest or weed control at 250 g/ha is reported as 90%.

Each molecule was assayed on Alopecurus myosuroides (ALOMY) in the same assay as above. Conditions: 312 h, 250 g/ha, after 13 days, 100=total damage, 0=no damage, read-out: Percentage damage caused to weed species ALOMY.
Format: in vivo
Method: as §1, with “one day” for “8 days”
as §3
COC(=O)c1nc(-c2ccc(C(C)=O)s2)nc(N)c1Cl [Compound 2-9, 4-Amino-5-chloro-6-methoxycarbonyl-2-(5-methylcarbonyl-thiophen-2-yl)-pyrimidine] gave a pest or weed control at 250 g/ha of 0%. Work on COC(=O)c1nc(-c2ccsc2)nc(N)c1Cl [Compound 2-16, 4-Amino-5-chloro-6-methoxycarbonyl-2-thiophen-3-ylpyrimidine] yielded a pest or weed control at 250 g/ha of 10%.

Each molecule was assayed on Echinochloa crus-galli (ECHCG) in the same assay as above. Conditions: 312 h, 250 g/ha, after 13 days, 100=total damage, 0=no damage, read-out: Percentage damage caused to weed species ECHCG.
Format: in vivo
Method: as §1, with “one day” for “8 days”
as §3
Molecule COC(=O)c1nc(-c2ccc(C(C)=O)s2)nc(N)c1Cl [Compound 2-9, 4-Amino-5-chloro-6-methoxycarbonyl-2-(5-methylcarbonyl-thiophen-2-yl)-pyrimidine] has a pest or weed control at 250 g/ha of 0%. For COC(=O)c1nc(-c2ccsc2)nc(N)c1Cl [Compound 2-16, 4-Amino-5-chloro-6-methoxycarbonyl-2-thiophen-3-ylpyrimidine], the pest or weed control at 250 g/ha was 0%.

These molecules were tested on Setaria faberi (SETFA) in the same assay as above. Conditions: 312 h, 250 g/ha, after 13 days, 100=total damage, 0=no damage, read-out: Percentage damage caused to weed species SETFA.
Format: in vivo
Method: as §1, with “one day” for “8 days”
as §3
Work on COC(=O)c1nc(-c2ccc(C(C)=O)s2)nc(N)c1Cl [Compound 2-9, 4-Amino-5-chloro-6-methoxycarbonyl-2-(5-methylcarbonyl-thiophen-2-yl)-pyrimidine] yielded a pest or weed control at 250 g/ha of 0%. Molecule COC(=O)c1nc(-c2ccsc2)nc(N)c1Cl [Compound 2-16, 4-Amino-5-chloro-6-methoxycarbonyl-2-thiophen-3-ylpyrimidine] has a pest or weed control at 250 g/ha of 0%.

What follows are molecules tested on Ipomea hederaceae (IPOHE) in the same assay as above. Conditions: Ipomoea hederacea, 312 h, 250 g/ha, after 13 days, 100=total damage, 0=no damage, read-out: Percentage damage caused to weed species IPOHE.
Format: in vivo
Method: as §1, with “one day” for “8 days”
as §3
COC(=O)c1nc(-c2ccc(C(C)=O)s2)nc(N)c1Cl [Compound 2-9, 4-Amino-5-chloro-6-methoxycarbonyl-2-(5-methylcarbonyl-thiophen-2-yl)-pyrimidine] gave a pest or weed control at 250 g/ha of 0%. COC(=O)c1nc(-c2ccsc2)nc(N)c1Cl [Compound 2-16, 4-Amino-5-chloro-6-methoxycarbonyl-2-thiophen-3-ylpyrimidine] was tested, and the pest or weed control at 250 g/ha was 0%.
